# US12691076B2, “Methods and compositions related to extracellular vesicles” (priority 2020, dated 2026)
# Like-named read-outs stand apart in the source and are kept apart here.
# Experiment: Plasma and tissue concentrations of efavirenz after tail vein injection
# Type: in vivo, CD-1 mice
# Conditions: mice, 5 mg/kg tail vein; for concentration at […]: 0.25 h
# Experimental: The efavirenz-loaded apical AVT-EVs were subsequently injected via tail vein into CD-1 mice at a dose of 5 mg/kg and compared to a control injection of 5 mg/kg of conventional efavirenz (dissolved with DMSO). Plasma and tissue concentrations were determined by LC-MS/MS.
# [1] = CD-1, mouse, liver, intravenous, LLOQ 35 ng/g, read-out: Efavirenz concentration, Liver
# [2] = CD-1, mouse, lung, intravenous, LLOQ 35 ng/g, read-out: Efavirenz concentration, Lungs
# [3] = CD-1, mouse, plasma, intravenous, read-out: Efavirenz concentration, Plasma
smiles,measurement,setting,value
"O=C1Nc2ccc(Cl)cc2[C@@](C#CC2CC2)(C(F)(F)F)O1 [Efavirenz in DMSO, efavirenz]",concentration at 0.083 h,[1],7590 ng/g
same,concentration at […],[1],5420 ng/g
same,concentration at 0.5 h,[1],5230 ng/g
same,concentration at 1 h,[1],176 ng/g
same,concentration at 2 h,[1],135 ng/g
same,concentration at 3 h,"CD-1, mouse, liver, intravenous, 3 h, LLOQ 35 ng/g, read-out: Efavirenz concentration, Liver",136 ng/g
same,concentration at 4 h,"CD-1, mouse, liver, intravenous, 4 h, LLOQ 35 ng/g, read-out: Efavirenz concentration, Liver",137 ng/g
same,concentration at 6 h,"CD-1, mouse, liver, intravenous, 6 h, LLOQ 35 ng/g, read-out: Efavirenz concentration, Liver",115 ng/g
same,concentration at 0.083 h,[2],2140 ng/g
same,concentration at […],[2],802 ng/g
same,concentration at 0.5 h,[2],830 ng/g
same,concentration at 1 h,[2],273 ng/g
same,concentration at 0.083 h,[3],4100 ng/mL
same,concentration at […],[3],2820 ng/mL
same,concentration at 0.5 h,[3],1620 ng/mL
same,concentration at 1 h,[3],1560 ng/mL
same,concentration at 2 h,[3],724 ng/mL
same,concentration at 3 h,"CD-1, mouse, plasma, intravenous, 3 h, read-out: Efavirenz concentration, Plasma",396 ng/mL
same,concentration at 4 h,"CD-1, mouse, plasma, intravenous, 4 h, read-out: Efavirenz concentration, Plasma",103 ng/mL
same,concentration at 6 h,"CD-1, mouse, plasma, intravenous, 6 h, read-out: Efavirenz concentration, Plasma",64.4 ng/mL
same,concentration at 8 h,"CD-1, mouse, plasma, intravenous, 8 h",33.1 ng/mL
same,AUC(0-t),"CD-1, mouse, plasma, intravenous, read-out: area under the plasma-time concentration curve (AUC0-8h) of efavirenz",4520 ng·h/mL
same,AUC0-8h for efavirenz in the lungs,,0.95 µg·h/g
same,lung:liver tissue AUC0-8h ratio,,0.19
same,overall exposure of the liver relative to the lungs,,approximately 5 times
same,"Efavirenz concentration, Lungs","3 h, LLOQ 35 ng/g",<LLOQ
same,"Efavirenz concentration, Lungs","4 h, LLOQ 35 ng/g",<LLOQ
same,"Efavirenz concentration, Lungs","6 h, LLOQ 35 ng/g",<LLOQ
same,"Efavirenz concentration, Liver","8 h, LLOQ 35 ng/g",<LLOQ
same,"Efavirenz concentration, Lungs","8 h, LLOQ 35 ng/g",<LLOQ
